What was measured:
[1] = test system: SARS-CoV-2 pseudovirus; type: cell-based
[2] = test system: SARS-CoV-2 pseudovirus; set-up: species or system mice; conditions: mouse

In the case of rhACE2, the “entry of SARS-CoV-2 pseudovirus into ACE2-expressing A549 cells” value [1] is reported as “efficiently blocked the infection”, the “pseudovirus neutralization by flow cytometry” value [1] is reported as “efficiently neutralized” and the “pseudovirus signals in lung, ex-vivo fluorescence imaging” value [2] is reported as “failed to block SARS-CoV-2 pseudovirus entry”.
